Results: PMC3319098 (Journal of the American Chemical Society, 2012)

What was measured:
[1] = target: T1, bovine carbonic anhydrase (BCA) (Bos taurus, UniProt P00921); conditions: resin-bound control ligand; cited from earlier work
[2] = target: T1, bovine carbonic anhydrase (BCA); experiment: MagLev measurement of BCA binding to ligand-functionalized PEGA beads; conditions: incubation with 0.33 mM BCA for 7 days; standard levitation buffer

T1 sequence (P00921 whole entry): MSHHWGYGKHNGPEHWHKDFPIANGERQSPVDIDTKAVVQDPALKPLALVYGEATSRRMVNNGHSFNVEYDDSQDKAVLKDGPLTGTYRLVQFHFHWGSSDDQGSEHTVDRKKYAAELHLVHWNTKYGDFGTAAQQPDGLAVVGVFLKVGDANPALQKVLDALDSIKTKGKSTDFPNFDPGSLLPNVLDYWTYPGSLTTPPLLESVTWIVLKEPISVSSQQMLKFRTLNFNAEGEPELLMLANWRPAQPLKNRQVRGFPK

CN(C)S(=O)(=O)c1ccc(C(=O)O)cc1 [sulfonamide 2, 4-dimethylsulfamoylbenzoic acid]
association with BCA [1]: should not associate measurably
decrease in the levitation height of functionalized beads [2]: < 0.1 mm
